Patent US20040023981A1, “Salt forms with tyrosine kinase activity” (priority 2002, published 2004)
Converted amounts (≈) assume the structure as drawn.

What was measured:
[1] = target: T1, human KDR (Homo sapiens, UniProt P35968); assay: VEGF Receptor Kinase Assay; assay type: biochemical
T1 construct: cloning the cytoplasmic domain of the KDR kinase as an in frame fusion at the carboxy terminus of the GST gene; made in house; host or cells: Spodoptera frugiperda (Sf21) insect cells, baculovirus vector pAcG2T
Description: VEGF receptor kinase activity is measured by incorporation of radio-labeled phosphate into polyglutamic acid, tyrosine, 4:1 (pEY) substrate. The phosphorylated pEY product is trapped onto a filter membrane and the incorporation of radio-labeled phosphate quantified by scintillation counting.
The intracellular tyrosine kinase domains of human KDR (Terman, B. I. et al. Oncogene (1991) vol. 6, pp. 1677-1683.) and Flt-1 (Shibuya, M. et al. Oncogene (1990) vol. 5, pp. 519-524) were cloned as glutathione S-transferase (GST) gene fusion proteins. This was accomplished by cloning the cytoplasmic domain of the KDR kinase as an in frame fusion at the carboxy terminus of the GST gene. Soluble recombinant GST-kinase domain fusion proteins were expressed in Spodoptera frugiperda (Sf21) insect cells (Invitrogen) using a baculovirus expression vector (pAcG2T, Pharmingen).
1) Add 5 μl of inhibitor or control to the assay in 50% DMSO.
2) Add 35 μl of reaction mix containing 5 μl of 10× reaction buffer, 5 μl 25 mM ATP/10 μCi [^33P]ATP (Amersham), and 5 μl 10× substrate.
3) Start the reaction by the addition of 10 μl of KDR (25 nM) in enzyme dilution buffer.
4) Mix and incubate at room temperature for 15 minutes.
5) Stop by the addition of 50 μl stop solution.
6) Incubate for 15 minutes at 4° C.
7) Transfer a 90 μl aliquot to filter plate.
8) Aspirate and wash 3 times with wash solution. […]

[2] = physchem; conditions: thermodynamic from solid, room temperature

T1 sequence (P35968 786-1356 limits assumed): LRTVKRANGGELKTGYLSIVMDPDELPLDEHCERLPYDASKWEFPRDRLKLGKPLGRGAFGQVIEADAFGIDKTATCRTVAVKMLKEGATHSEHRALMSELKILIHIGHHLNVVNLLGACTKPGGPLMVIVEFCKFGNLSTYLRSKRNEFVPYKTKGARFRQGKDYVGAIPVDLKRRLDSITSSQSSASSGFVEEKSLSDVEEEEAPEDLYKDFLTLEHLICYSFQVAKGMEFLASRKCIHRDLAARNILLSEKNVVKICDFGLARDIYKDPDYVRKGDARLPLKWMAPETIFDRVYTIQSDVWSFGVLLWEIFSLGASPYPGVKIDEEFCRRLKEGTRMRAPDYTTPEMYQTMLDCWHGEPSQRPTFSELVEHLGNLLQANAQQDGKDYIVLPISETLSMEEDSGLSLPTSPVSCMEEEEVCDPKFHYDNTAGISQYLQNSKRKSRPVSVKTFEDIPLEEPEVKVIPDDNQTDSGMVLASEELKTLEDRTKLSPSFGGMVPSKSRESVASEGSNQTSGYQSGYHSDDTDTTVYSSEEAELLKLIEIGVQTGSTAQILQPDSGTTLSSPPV

SMILES	kinase inhibitory activity [1]	solubility ([2]; 50% aqueous IPA, aqueous with cosolvent or surfactant or cyclodextrin)	solubility ([2]; 50% aqueous ethanol, aqueous with cosolvent or surfactant or cyclodextrin)	solubility ([2]; water, pH 2.9, water)
CNC(=O)N1CCN(Cc2ccnc(Nc3ncc(C#N)s3)c2)CC1 [Compound 4-4, 4-[2-(5-cyano-thiazol-2-ylamino)-pyridin-4-ylmethyl]-piperazine-1-carboxylic acid methylamide]	inhibits the kinase KDR			
CNC(=O)N1CCN(Cc2ccnc(Nc3ncc(C#N)s3)c2)CC1 [Form C, 4-[2-(5-cyano-thiazol-2-ylamino)-pyridin-4-ylmethyl]-piperazine-1-carboxylic acid methylamide]		12.3 mg/mL (≈ 34.4 mM)	10.4 mg/mL (≈ 29.1 mM)	6 mg/mL (≈ 16.8 mM)
